This note sets out measurements from PubChem BioAssay AID1996.

Values after ≈ are worked out from the molar mass of the structure shown.

The conditions of the data set: buffer; pH 7.4; 200.0 µM.
Turning to `O=C1C2CCCN2C(=S)N1C1CCCCC1` (centres undefined), the solubility (kinetic) (usually solubility judged after dilution from a stock solution rather than from solid) was greater than 35.8 µg/mL. In the case of `COc1ccc(CCOC(=O)c2cccc(NC(C)=O)c2)cc1`, the solubility (kinetic) was greater than 47 µg/mL. Take `C=CCNC(=O)C1CC1(c1cccc(C)c1)c1cccc(C)c1` (centres undefined): the kinetic solubility came out at 1.7 µg/mL (≈ 5.57 µM). As to `CC(C)NCc1nnc(-c2ccc(Cl)cc2)o1`, the solubility (kinetic) is greater than 37.8 µg/mL.

The molecule `COC(=O)c1c(C)[nH]c(C)c1C(C)=O` had a solubility (kinetic) greater than 29.3 µg/mL. Molecule `CCCCCC1CC(CC(=O)Nc2ccc([N+](=O)[O-])cc2)OC1=O` (centres undefined) came in with a solubility (kinetic) of 0.5 µg/mL (≈ 1.5 µM).

Take `O=C(NCC1CCCO1)c1cc2cc(F)ccc2[nH]1` (centres undefined): the solubility (kinetic) turned out to be 36.8 µg/mL (≈ 140 µM). For the molecule `O=C(COC(=O)/C=C/c1cccc(F)c1)NC(=O)NCc1ccccc1`, the kinetic solubility is 2.8 µg/mL (≈ 7.86 µM). The molecule `O=C(Nc1ccccc1O)c1ccc2c(c1)C(=O)N(c1ccccc1)C2=O` had a kinetic solubility of less than 0.4 µg/mL.

On to `O=C(CCc1nc(-c2ccccc2F)no1)Nc1cccnc1`, for which the solubility (kinetic) is greater than 46.8 µg/mL.

In turn, `CC(C)(C)C(=O)Nc1ccc(F)cc1[N+](=O)[O-]` returned a solubility (kinetic) of 13.8 µg/mL (≈ 57.4 µM). In turn, `CCN(CC(=O)Nc1ccccc1Br)C1CCCCC1` registered a kinetic solubility of 9.1 µg/mL (≈ 26.8 µM).

Molecule `Cc1cccc(OCCCN2CCOCC2)c1C` showed a solubility (kinetic) of 25.4 µg/mL (≈ 102 µM). Regarding `NC(=O)c1cccnc1Oc1ccc(Cl)cc1Cl`, the solubility (kinetic) was 37.1 µg/mL (≈ 131 µM). For the molecule `Fc1ccccc1OCCn1c(=S)[nH]c2ccccc21`, the kinetic solubility was determined as 6 µg/mL (≈ 20.8 µM). `O=c1oc2ccccc2n1Cc1cccc(Cl)c1` displayed a solubility (kinetic) of 0.8 µg/mL (≈ 3.08 µM). Molecule `CC(C)NC(=O)c1ccc2c(c1)N(CC(=O)N1CCCCC1)C(=O)C(C)(C)O2` came in with a solubility (kinetic) of 44.8 µg/mL (≈ 116 µM). In turn, `CCCn1cnc2scc(-c3ccc(C)c(C)c3)c2c1=O` gave a solubility (kinetic) of 1.1 µg/mL (≈ 3.69 µM). Turning to `COc1cc(C)c(CN2CCC(Cc3ccccc3)CC2)cc1C`, the solubility (kinetic) came to 26.4 µg/mL (≈ 81.6 µM). Then `c1ccc(-c2cc3ccccc3[nH]2)cc1`, with 0.7 µg/mL (≈ 3.62 µM); and `CCC(=O)N(CCC1(C(C)C)CCOC(C)(C)C1)C(C)c1cccs1` (centres undefined), with 42.2 µg/mL (≈ 115 µM); and `COc1ccc(C(=O)NC(C)C2CC3CCC2C3)cc1` (centres undefined), with 8.1 µg/mL (≈ 29.6 µM). In turn, `CCCNC(=O)N1CCC(c2ccc3c(c2)OCO3)CC1` yielded a kinetic solubility of 38.8 µg/mL (≈ 134 µM). The molecule `COc1cccc(CN(C)C(=S)Nc2ccc(C)c(C)c2)c1` registered a kinetic solubility of 25.1 µg/mL (≈ 79.8 µM). Consider `O=C(Cc1c(F)cccc1Cl)Nc1nccs1`, for which the kinetic solubility was 30 µg/mL (≈ 111 µM). In turn, `O=C(Nc1nc2cc3c(cc2s1)OCO3)c1ccc(N2C(=O)CCC2=O)cc1` yielded a solubility (kinetic) of 1.1 µg/mL (≈ 2.78 µM). Then `O=C(OC1CCOC1=O)c1ccc(N2CCCC2)c([N+](=O)[O-])c1` (centres undefined), with greater than 48 µg/mL; and `Cc1ccc2c(c1)[nH]c1c(=O)n(Cc3ccco3)cnc12`, with 0.5 µg/mL (≈ 1.79 µM); and `Cc1nc(-c2ccccc2)[nH]c(=O)c1Oc1ccc(Cl)cc1Cl`, with less than 0.4 µg/mL. In the case of `CCOc1ccc(S(=O)(=O)/N=C(/Nc2ccc(C(C)=O)cc2)c2ccccc2)cc1`, the kinetic solubility was 18.1 µg/mL (≈ 42.8 µM). `Cc1ccc(S(=O)(=O)N2CCN(C(=O)Cn3c(=O)oc4ccccc43)CC2)cc1` returned a solubility (kinetic) of 12.7 µg/mL (≈ 30.6 µM).

Molecule `CC(=O)c1ccc(NC(=O)C2CCCC2)cc1` yielded a solubility (kinetic) of 32.6 µg/mL (≈ 141 µM). `O=C(Nc1ccc(Br)cc1)c1cccnc1N1CCOCC1` registered a solubility (kinetic) greater than 54.3 µg/mL. Molecule `CC1=NN(c2nc3ccccc3[nH]2)C(=O)/C1=C/N(C)C` came in with a solubility (kinetic) greater than 40.4 µg/mL. As for `C=CCNC(=O)/C(C#N)=C/c1ccc(C)o1`, the kinetic solubility was greater than 32.4 µg/mL. In the case of `O=C(CSc1nc2ncccc2[nH]1)NC1CCCCC1`, the kinetic solubility was greater than 43.6 µg/mL.

As to `CC1CCCC(NC(=O)COC(=O)[C@@H](NC(=O)c2ccccc2Cl)C(C)C)C1C` (some centres undefined), the kinetic solubility came to 46.1 µg/mL (≈ 109 µM). Turning to `CCN(CC)c1ccc(/C=C2\C(=O)NC(=S)N(c3ccc(OC)cc3OC)C2=O)o1`, the solubility (kinetic) came out at 56 µg/mL (≈ 130 µM). For `N#CCSc1ccc(-c2nc3ccccc3[nH]2)cn1`, the solubility (kinetic) amounted to 17 µg/mL (≈ 63.8 µM). Then `S=C(NCCCc1ccccc1)NC1CCCCC1`, with 22.5 µg/mL (≈ 81.4 µM). Turning to `O=C(Nc1ccc(S(=O)(=O)Nc2ccccc2)cc1)C1CC1`, the kinetic solubility turned out to be 12.6 µg/mL (≈ 39.8 µM). Regarding `CCC(CC)NC(=O)COc1ccc(OC)cc1C=O`, the solubility (kinetic) was determined as 30.7 µg/mL (≈ 110 µM). Molecule `COc1ccc(NC(=O)c2cc3ccc(O)cc3o/c2=N\O)cc1` showed a solubility (kinetic) of less than 0.3 µg/mL. In turn, `Cc1cc(N2CC(C)OC(C)C2)n2cc(-c3ccccc3)nc2n1` (centres undefined) yielded a solubility (kinetic) of 15.4 µg/mL (≈ 47.8 µM). Then `CCC(=O)Nc1ccc(OCC2CCCO2)cc1` (centres undefined), with 35.6 µg/mL (≈ 143 µM); and `CCOC(=O)c1ccc(NC(=S)NCc2ccc(F)cc2)cc1`, with 2.2 µg/mL (≈ 6.62 µM). Then `Br.CCSC(=Nc1ccccc1)N1CCOCC1`, with 43.9 µg/mL; and `C#CCOC(=O)C[N+](C)(C)CC=C.[Cl-]`, with greater than 32.7 µg/mL. `Cc1cc(C)c2cc(C(=O)N3CCC(N4CCCCC4)CC3)[nH]c2c1` yielded a solubility (kinetic) greater than 50.9 µg/mL. For `O=C(NCCCn1ccnc1)c1ccc(-c2cccc(Cl)c2Cl)o1`, the solubility (kinetic) worked out at 48.1 µg/mL (≈ 132 µM). In the case of `CSc1ncc(CN2CCN(CCC(C)C)C(CCO)C2)cn1` (centres undefined), the solubility (kinetic) turned out to be 41.7 µg/mL (≈ 123 µM). `Cl.Nc1ccc(CCN2CCCC2)cc1` came in with a solubility (kinetic) of 34.7 µg/mL. Then `CC(=O)C1=C(O)C(=O)N(Cc2ccccc2)C1c1ccc(N(C)C)cc1` (centres undefined), with 51.6 µg/mL (≈ 147 µM); and `On1c(-c2ccc(Cl)cc2Cl)nc2ncccc21`, with greater than 42 µg/mL; and `O=C(NCc1cccnc1)c1nn2cccnc2c1Cl`, with greater than 43.2 µg/mL. Regarding `O=C1c2ccccc2C2(c3ccc(F)cc3)NCCN12` (centres undefined), the solubility (kinetic) was greater than 40.2 µg/mL. Turning to `Cc1ccccc1NC(=O)CC(=O)c1ccccc1`, the kinetic solubility was greater than 38 µg/mL. Molecule `Cc1cc(NC(=O)c2ccc(C)c(C)c2)no1` registered a kinetic solubility of 3.6 µg/mL (≈ 15.6 µM). `CN1CC(c2ccccc2)Oc2ccccc2C1=S` (centres undefined): the solubility (kinetic) is 5.6 µg/mL (≈ 20.8 µM).

In turn, `COC(=O)c1sccc1NC(=O)Nc1ccccc1C` gave a solubility (kinetic) of 23.6 µg/mL (≈ 81.3 µM). Then `COc1ccccc1C1N=C(c2ccccc2C)NO1` (centres undefined), with 24 µg/mL (≈ 89.4 µM); and `COc1ccc(CC(=O)Nc2ccc3nc(SC)sc3c2)cc1OC`, with 34.3 µg/mL (≈ 91.6 µM); and `CCCCN(C(=O)c1cccs1)c1c(N)n(Cc2ccccc2)c(=O)[nH]c1=O`, with 6.1 µg/mL (≈ 15.3 µM). The molecule `O=[N+]([O-])c1ccc(NC(=S)N2CCN(c3ccccn3)CC2)cc1` came in with a solubility (kinetic) of 1.4 µg/mL (≈ 4.08 µM). Consider `Cc1cc2cc(CNC(=S)NC3CCCCC3)ccc2[nH]1`, for which the kinetic solubility turned out to be 12.5 µg/mL (≈ 41.5 µM). `Cc1cc(C)nc(Nc2ccc(F)cc2)n1` displayed a kinetic solubility greater than 32.6 µg/mL. In turn, `COc1ccccc1OC(C)C(=O)N1CCC(Cc2ccccc2)CC1` (centres undefined) registered a solubility (kinetic) of 50.9 µg/mL (≈ 144 µM). `COc1ccccc1CNC(=O)CCNS(=O)(=O)/C=C/c1ccc(C)cc1` displayed a kinetic solubility of 57.8 µg/mL (≈ 149 µM). Under `O=C(O)c1cc(C(=O)O)cc(N2C(=O)CSC2=S)c1` stands greater than 44.6 µg/mL. With `CNCCCN1c2ccccc2CCc2ccccc21.Cl`, the kinetic solubility was greater than 45.4 µg/mL. In turn, `COCCCNC(=S)N1CCN(C)CC1` yielded a solubility (kinetic) greater than 34.7 µg/mL. As for `CCC(C)N(C)C1CCN(C(=S)Nc2cccc(SC)c2)CC1` (centres undefined), the kinetic solubility was greater than 52.7 µg/mL. Take `CN(Cc1cccc(Cl)c1Cl)C(=O)c1cc(S(=O)(=O)N2CCOCC2)ccc1F`: the solubility (kinetic) was 5.2 µg/mL (≈ 11.3 µM). As to `CC(=O)c1c(-c2ccc(Cl)cc2Cl)noc1C`, the solubility (kinetic) was 17.5 µg/mL (≈ 64.8 µM). Under `Cc1ccc(S(=O)(=O)N2CCOCC2)cc1NC(=O)COC(=O)Cc1ccccc1` stands greater than 64.9 µg/mL. In the case of `CN(C)C/C=C/C(O)(c1ccccc1)c1ccccc1`, the kinetic solubility is greater than 40.1 µg/mL. Under `COc1cc(CN=Cc2c(O)n(C(C)(C)C)c(=O)[nH]c2=O)cc(OC)c1` stands 2.8 µg/mL (≈ 7.75 µM). Then `CCOc1ccc(NC(=O)CN2C(=O)C(C)SC(C)C2=O)cc1` (centres undefined), with 34.8 µg/mL (≈ 103 µM); and `CC(OC(=O)c1ccc(NC(=O)CC#N)cc1)C(=O)NC(c1ccccc1)c1ccccc1` (centres undefined), with 8.5 µg/mL (≈ 19.3 µM); and `C/C(=C\c1ccc(Cl)cc1)C(=O)c1c(C)cc(C)[nH]c1=O`, with 42.8 µg/mL (≈ 142 µM).

Molecule `O=C(NC1(C(F)(F)F)NC(=O)N(C2CCCCC2)C1=O)C1CC1` (centres undefined) had a kinetic solubility greater than 50 µg/mL. In the case of `CC1CCc2c(sc(NC(=O)C3=COCCO3)c2C(N)=O)C1` (centres undefined), the solubility (kinetic) was found to be 6.3 µg/mL (≈ 19.5 µM). `CC(=O)c1c(C)[n+]([O-])c2ccc3c(non3O)c12` yielded a solubility (kinetic) of 25.5 µg/mL (≈ 103 µM). Then `CCOc1ccc(S(=O)(=O)NCc2ccccn2)c(C)c1C`, with greater than 48.1 µg/mL; and `CC(=O)Nc1ccc2c(c1)C(=O)N(c1cccc3ccccc13)C2=O`, with 8.2 µg/mL (≈ 24.8 µM); and `Cc1sc2ncnc(N(C)C3CCCCC3)c2c1C`, with 1.1 µg/mL (≈ 3.99 µM). `CCOc1ccc(NC(=O)c2ccc(NC(=O)c3ccc(NC(N)=O)cc3)cc2)cc1`: the kinetic solubility came out at 2 µg/mL (≈ 4.78 µM).

As to `N#Cc1cc(S(=O)(=O)N2CCOCC2)ccc1N1CCOCC1`, the solubility (kinetic) is greater than 50.6 µg/mL. The molecule `CCOc1ccc(S(=O)(=O)NC2CCCC2)cc1C` had a kinetic solubility greater than 42.5 µg/mL. Molecule `O=c1oc(Nc2ccccc2Cl)nc2ccccc12` registered a solubility (kinetic) of 7.9 µg/mL (≈ 29 µM). In the case of `Cc1cc2oc(=O)cc(CN3CCC(C)CC3)c2cc1C`, the solubility (kinetic) is 4.1 µg/mL (≈ 14.4 µM). Then `NC1=C([N+](=O)[O-])C(c2ccc3c(c2)OCO3)C2=C(CCCC2=O)O1` (centres undefined), with 48.4 µg/mL (≈ 147 µM); and `CCc1ccc2[nH]c(C(=O)Nc3ccc(C)c(F)c3)cc2c1`, with 0.9 µg/mL (≈ 3.04 µM). The molecule `COc1cccc(C2CC(=O)Nc3cc(OC)c(OC)cc32)c1` (centres undefined) returned a kinetic solubility of 20.3 µg/mL (≈ 64.8 µM). Then `c1ccc(CN2CCN(c3cnc4ccccc4n3)CC2)cc1`, with 37.7 µg/mL (≈ 124 µM). With `N#Cc1ccccc1NC(=O)c1ccc2c(c1)OCO2`, the kinetic solubility was 10.8 µg/mL (≈ 40.6 µM).

The molecule `O=[N+]([O-])c1ccc(-c2cn3c(n2)CCC3)cc1` yielded a kinetic solubility of 25.5 µg/mL (≈ 111 µM). Take `CC(C(=O)NCc1ccccc1)N1CCN(c2ccc(F)cc2)CC1` (centres undefined): the kinetic solubility is greater than 51.2 µg/mL. Regarding `COc1ccc(NC(=O)Nc2ccc3nonc3c2)cc1`, the kinetic solubility is 5.3 µg/mL (≈ 18.6 µM).

For `N#CCCN(C(=O)COC(=O)CCc1ccccc1)c1ccccc1`, the kinetic solubility came out at 44.8 µg/mL (≈ 133 µM). Then `N#Cc1ccc(NC(=O)CN2C(=O)NC3(CCCC3)C2=O)cc1Cl`, with 46.1 µg/mL (≈ 133 µM); and `COC(=O)c1cn(S(=O)(=O)c2ccccc2)c2ccccc12`, with 2 µg/mL (≈ 6.34 µM). Then `Cc1ccsc1C(=O)NCCc1ccco1`, with 33.5 µg/mL (≈ 142 µM); and `CCOc1ccc(Nc2cc(=O)[nH]c(=O)[nH]2)cc1`, with 7.6 µg/mL (≈ 30.7 µM).
